Results taken from patent US9309187B2, “EP2 receptor agonists” (TAKEDA GMBH, priority 2012, dated 2016).

How the values were obtained:
Type in all cases: cell-based
[1] = system: TNFalpha release in human whole blood stimulated with LPS; assay: Inhibition of LPS induced TNFalpha release in human whole blood; conditions: 1 microg/mL LPS, 4 hours, reported as range bins, read-out: Inhibition of LPS induced TNFalpha release in human whole blood pIC30 (-log IC30)
Description: Method for Measuring the Inhibition of TNFalpha Release in Human Whole Blood Stimulated with LPS:
Assay was performed with some modifications of the method described by Hatzelmann and Schudt (Hatzelmann and Schudt (2001) JPET 297: 267-279) and the protocol “drawing of venous blood from healthy volunteers for in vitro studies” was approved by the ethics committee of the Landesärztekammer Baden Württemberg in Stuttgart.
Heparinised venous blood was equilibrated to assay conditions for 1 hour at room temperature upon blood drawing. Immediately thereafter, 200 microL whole blood per sample were pre-incubated with 25 microL of a serial dilution of test compound or piclamilast as positive control for 30 min. at 37° C. After pre-incubation blood samples were stimulated by the addition of 25 microL lipopolysaccharide (LPS) (Sigma, Aldrich) per sample resulting in a final concentration of 1 microg/mL LPS and a final volume of 250 microL. Cells were incubated for 4 hours at 37° C. TNFalpha levels were determined from plasma that was obtained by a centrifugation step and transferring the supernatant to a new 96-well plate which was again centrifuged and clear plasma supernatant was used for the measurement of TNFalpha via alphaLISA Technology according to manufacture protocol (Perkin Elmer).
(§1) Whole blood samples that were not stimulated with LPS were used as control and set for 100% inhibition. Whole blood samples that were stimulated with LPS and solvent instead of test compound were set as 0% inhibition. Percent inhibition was calculated based on these controls for each sample and since most compounds achieved saturating maximal inhibition of 60% a pIC30 value was calculated with GraphPad Prism Software.
For the following compounds the inhibitory values of TNFalpha release [determined as −log IC30=pIC30] in the human whole blood assay between 4.5 and 4.9, between 5.0 and 5.9 and between 6.0 and 6.9 have been determined. The numbers of the compounds correspond to the examples numbers.
Inhibition of LPS Induced TNFalpha Release Assay in Human Whole Blood: pIC30

[2] = system: normal human lung fibroblasts (NHLF); assay: Inhibition of the proliferation of normal human lung fibroblasts (NHLF); conditions: Fibroblast, IL1β (50 pg/mL) and bFGF (10 ng/mL) for 36 h, methyl-3H thymidine incorporation, read-out: inhibition of NHLF proliferation pIC50 (-log IC50) (converted)
Description: Method for Determination of the Inhibition of the Proliferation of Normal Human Lung Fibroblasts (NHLF)
16,500 NHLF-cells were seeded in each well of 24-well cell culture plates and were subsequently cultivated for 3.5 days. Thereafter cell culture medium was replaced by non-serum containing medium and cells were starved for 24 h. Subsequently a serial dilution of test compound was added and cells were stimulated with IL1β (Interleukine 1 beta) (50 pg/mL) and bFGF (basic Fibroblast Growth Factor) (10 ng/mL) for 36 h. For DNA-synthesis (Desoxyribonucleic Acid-synthesis) measurement methyl-^3H thymidine was added to the cells for the last 7 h of the 36 h incubation period. Thereafter the radioactive labeled cells were processed for measurement of the incorporated radioactivity as a marker for DNA-synthesis and thus proliferation. For that purpose the cell culture supernatants were removed, adherent cells washed once with ice-cold PBS and fixed in ice-cold 10% (w/v) trichloroacetic acid (TCA) for 30 min. Thereafter TCA was discarded and the DNA of the fixed cells hydrolyzed by administering 0.2 N NaOH. The radioactivity containing NaOH was then transferred into scintillation vials, scintillation liquid added and radioactivity was counted (L56500, Beckman Counter). Test compounds were dissolved in DMSO to a stock concentration of 10 mM. After administration of the compound to the cell cultures the final DMSO concentration was 0.1%. Inhibition of proliferation by the various concentrations of test compound was calculated related to 0.1% DMSO-treated control cells.
The numbers of the compounds correspond to the examples numbers.

[3] = system: TNFalpha release in human peripheral blood mononuclear cells (PBMC) stimulated with LPS; assay: Inhibition of LPS induced TNFalpha release in human PBMCs; conditions: 1 ng/mL LPS, 24 hours, reported as range bins, read-out: Inhibition of LPS induced TNFalpha release in human PBMCs pIC30 (-log IC30)
Description: Method for Measuring the Inhibition of TNFalpha Release in Human Peripheral Blood MononuClear Cells (PBMC) Stimulated with LPS:
Assay was performed with some modifications of the method described by Hatzelmann and Schudt (Hatzelmann and Schudt 2001, J. Pharmacol. Exp. Therapeutics 297: 267-279) and the protocol “drawing of venous blood from healthy volunteers for in vitro studies” was approved by the ethics committee of the Landesärztekammer Baden Württemberg in Stuttgart. Peripheral blood mononuclear cells (PBMCs) were isolated from venous blood with the anticoagulant citrate from healthy donors according to standard protocols using Ficoll. The cell layer of PBMCs were washed twice with phosphate buffer solution and equilibrated at room temperature for 60 minutes. 500,000 PBMCs in 180 microL RPMI1640 cell medium supplemented with 10% FCS, NEAA (Non-essential-amino-acids), L-Glutamine and Sodium Pyruvate per sample were pre-incubated with 10 microL of a serial dilution of test compound or piclamilast as positive control for 60 min. at 37° C. After pre-incubation blood samples were stimulated by the addition of 10 microL LPS (Sigma, Aldrich) per sample resulting in a final concentration of 1 ng/mL LPS and a final volume of 200 microL. Cells were incubated for 24 hours at 37° C. TNFalpha levels were determined from cell supernatant that was obtained by a centrifugation step and transferring the supernatant to a new 96-well plate. Content of TNFalpha was determined via alphaLISA Technology according to manufacture protocol (Perkin Elmer).
as §1, with “PBMC” for “Whole blood”
For the following compounds the inhibitory values of TNFalpha release [determined as −log IC30=pIC30] in human PBMCs between 5.0 and 5.9, between 6.0 and 6.9, between 7.0 and 7.9 and between 8.0 and 9.0 have been determined. The numbers of the compounds correspond to the examples numbers.
Inhibition of LPS Induced TNFalpha Release Assay in Human PBMCs: pIC30

For `O=C(O)/C=C/c1ccc(Cl)c(NC(=O)c2cc(-c3ccccc3)cc3ccccc23)c1` [Example 3, (2E)-3-(4-chloro-3-{[(3-phenylnaphthalen-1-yl)carbonyl]amino}phenyl)prop-2-enoic acid], the IC30 [1] was 12600 to 31600 nM.
Work on `O=C(O)/C=C/c1ccc(F)c(NC(=O)c2cc(-c3ccccc3F)cc3ccccc23)c1` [Example 9, (2E)-3-{3-[({3-[2-fluorophenyl]naphthalen-1-yl}carbonyl)amino]-4fluorophenyl}prop-2-enoic acid] yielded an IC30 [1] of 126 to 1000 nM, an IC50 [2] of 1.58 to 15.8 nM and an IC30 [3] of 12.6 to 100 nM.
In the case of `O=C(O)/C=C/c1ccc(F)c(NC(=O)c2cc(-c3cccc(F)c3)cc3ccccc23)c1` [Example 10, (2E)-3-{3-[({3-[3-fluorophenyl]naphthalen-1-yl}carbonyl)amino]-4fluorophenyl}prop-2-enoic acid], the IC30 [1] is reported as 126 to 1000 nM, the IC50 [2] is reported as 1.58 to 15.8 nM and the IC30 [3] is reported as 1 to 10 nM.
`O=C(O)/C=C/c1ccc(F)c(NC(=O)c2cc(-c3ccccc3)cc3ccccc23)c1` [Example 2, (2E)-3-(4-fluoro-3-{[(3-phenylnaphthalen-1-yl)carbonyl]amino}phenyl)prop-2-enoic acid] showed an IC30 [1] of 126 to 1000 nM, an IC50 [2] of 1.58 to 15.8 nM and an IC30 [3] of 1 to 10 nM.
Work on `O=C(O)/C=C/c1cccc(NC(=O)c2cc(-c3ccccc3)cc3ccccc23)c1` [Example 1, (2E)-3-(3-{[(3-phenylnaphthalen-1-yl)carbonyl]amino}phenyl)prop-2-enoic acid] yielded an IC30 [1] of 126 to 1000 nM, an IC50 [2] of 1.58 to 15.8 nM and an IC30 [3] of 1 to 10 nM.
